Biological target: L858R/T790M EGFR (Homo sapiens, UniProt P00533, L858R/T790M)
Conditions: Ba/F3 cells harboring L858R/T790M EGFR treated with inhibitor; lysates immunoprecipitated by biotinylated Compound A; FIG. 2A
Description: 15-20 μg of proteins lysates were aliquoted and loaded at the same time as the pull down assay to ensure the presence of EGFR protein, phospho-EGFR activity. Tubulin expression was assessed to ensure even loading of gels. 500 μg of protein was incubated with either biotinylated-linker (control) or with biotinylated Compound A for two hours before 50% NeutrAvidin agarose beads (Thermo Fisher Scientific) slurry was added for an hour to precipitate the EGFR that was associated to the biotinylated allosteric inhibitor. The beads were then washed three times with PBS containing 1% IGEPAL and an insulin syringe was used to remove extraneous buffer before the samples were suspended in 2×SDS sample preparation buffer for Western blotting analyses. All experiments were performed at least three times.

Sequence of L858R/T790M EGFR (P00533 25-1210 T790M/L858R): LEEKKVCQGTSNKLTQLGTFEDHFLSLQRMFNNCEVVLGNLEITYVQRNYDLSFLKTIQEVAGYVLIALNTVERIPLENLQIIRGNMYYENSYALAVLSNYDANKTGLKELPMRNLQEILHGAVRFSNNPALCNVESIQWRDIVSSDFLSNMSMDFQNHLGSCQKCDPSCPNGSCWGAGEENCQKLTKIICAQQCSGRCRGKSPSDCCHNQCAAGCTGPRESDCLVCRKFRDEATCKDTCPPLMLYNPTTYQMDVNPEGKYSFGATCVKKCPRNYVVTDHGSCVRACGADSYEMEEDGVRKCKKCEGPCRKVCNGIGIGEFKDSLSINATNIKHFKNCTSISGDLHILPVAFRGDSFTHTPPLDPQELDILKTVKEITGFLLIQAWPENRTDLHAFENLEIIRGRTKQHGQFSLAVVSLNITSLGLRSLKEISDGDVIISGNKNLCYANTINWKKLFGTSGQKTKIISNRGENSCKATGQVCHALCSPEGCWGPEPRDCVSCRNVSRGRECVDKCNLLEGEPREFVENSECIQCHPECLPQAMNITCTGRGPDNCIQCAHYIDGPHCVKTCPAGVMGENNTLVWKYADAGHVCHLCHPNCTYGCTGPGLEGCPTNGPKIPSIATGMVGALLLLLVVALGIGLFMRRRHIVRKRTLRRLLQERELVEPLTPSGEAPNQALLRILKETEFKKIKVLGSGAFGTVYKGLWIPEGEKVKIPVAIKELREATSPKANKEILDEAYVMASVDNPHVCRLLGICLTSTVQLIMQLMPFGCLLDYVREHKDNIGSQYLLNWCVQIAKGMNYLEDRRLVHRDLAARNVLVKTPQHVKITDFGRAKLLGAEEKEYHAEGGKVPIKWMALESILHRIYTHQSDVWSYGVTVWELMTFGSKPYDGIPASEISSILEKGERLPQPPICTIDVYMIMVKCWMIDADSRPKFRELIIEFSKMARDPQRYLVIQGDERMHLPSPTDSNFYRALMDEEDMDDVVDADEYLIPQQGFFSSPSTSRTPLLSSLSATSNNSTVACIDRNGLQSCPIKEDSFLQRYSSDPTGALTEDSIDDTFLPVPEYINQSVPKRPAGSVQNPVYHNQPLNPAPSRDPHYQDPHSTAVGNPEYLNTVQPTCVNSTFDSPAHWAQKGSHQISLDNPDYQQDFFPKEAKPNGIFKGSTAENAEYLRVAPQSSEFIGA

`C=CC(=O)Nc1cccc(Oc2nc(Nc3ccc(N4CCN(C)CC4)cc3OC)ncc2Cl)c1` [WZ-4002] was tested, and the “interference with binding of Compound A to EGFR” value was “interfere”.

— patent publication US20210077469A1, “PHARMACEUTICAL COMBINATIONS OF EGFR INHIBITORS AND METHODS OF USE THEREOF” (DANA-FARBER CANCER INSTITUTE, INC., priority 2018, published 2021)
